Reference: ChEMBL document CHEMBL5346877, “A-ring-fused pyrazoles of dihydrotestosterone targeting prostate cancer cells via the downregulation of the androgen receptor” (Eur J Med Chem, 2023)
Active and inactive are the calls of the source. No cut-off for these calls is given here.

Experiments:
[1] = tested on: CWR22R; assay: Cytotoxicity against human 22Rv1 cells assessed as cell viability at 20 uM incubated for 72 hrs by resazurin dye based microplate reader assay; type: functional; settings: read-out: Activity
[2] = tested on: DU-145; assay: Cytotoxicity against human DU-145 cells assessed as cell viability at 20 uM incubated for 72 hrs by resazurin dye based microplate reader assay; type: functional; settings: read-out: Activity
[3] = tested on: LAPC4; assay: Inhibition of colony formation in human LAPC4 cells at 5 uM incubated for 10 days by crystal violet staining based assay; type: functional, cell-based; settings: time 10.0 day
[4] = tested on: LAPC4; assay: Inhibition of colony formation in human LAPC4 cells at 10 uM incubated for 10 days by crystal violet staining based assay; type: functional; settings: LAPC4, 240 h, time 10 day
[5] = tested on: LAPC4; assay: Cytotoxicity against human LAPC4 cells assessed as cell viability at 20 uM incubated for 72 hrs by resazurin dye based microplate reader assay; type: functional; settings: read-out: Activity
[6] = Downregulation of AR protein expression in human LAPC4 cells assessed as AR levels at 10 uM incubated for 24 hrs by immunoblotting analysis; type: functional

Row | Structure (SMILES) | viability at 20 µM [1] [%] | viability at 20 µM [2] [%] | inhibition [3] | inhibition at 10 µM [4] [%] | viability at 20 µM [5] [%] | Activity [6]
1 | Cc1c2c(nn1-c1ccc([N+](=O)[O-])cc1)C[C@@H]1CC[C@@H]3[C@H](CC[C@]4(C)[C@@H](O)CC[C@@H]34)[C@@]1(C)C2 | 58 | 85 | Active | 11 | 74 | 
2 | Cc1c2c(nn1-c1ccc(Br)cc1)C[C@@H]1CC[C@@H]3[C@H](CC[C@]4(C)C(=O)CC[C@@H]34)[C@@]1(C)C2 |  |  | Active |  |  | 
3 | Cc1c2c(nn1-c1ccc(F)cc1)C[C@@H]1CC[C@@H]3[C@H](CC[C@]4(C)C(=O)CC[C@@H]34)[C@@]1(C)C2 | 75 | ≥ 100 | Active | 15 | 42 | 
4 | Cc1ccc(-n2nc3c(c2C)C[C@@]2(C)[C@@H](CC[C@@H]4[C@@H]2CC[C@]2(C)C(=O)CC[C@@H]42)C3)cc1 | 97 | ≥ 100 | Active | 54 | 87 | 
5 | Cn1nc2c(c1-c1ccccc1)C[C@@]1(C)[C@@H](CC[C@@H]3[C@@H]1CC[C@]1(C)C(=O)CC[C@@H]31)C2 | 68 | ≥ 100 | Active | 21 | 36 | 65%
6 | C[C@]12CC[C@H](O)CC1=CC[C@@H]1[C@@H]2CC[C@]2(C)C(c3cccnc3)=CC[C@@H]12 [ABIRATERONE] | ≥ 100 | ≥ 100 |  | 70 | 100 | 88%
7 | Cc1c2c(nn1-c1ccc(C#N)cc1)C[C@@H]1CC[C@@H]3[C@H](CC[C@]4(C)[C@@H](O)CC[C@@H]34)[C@@]1(C)C2 | 43 | 50 | Active | 6 | 73 | 
8 | C[C@]12Cc3c(nn(-c4ccccc4)c3-c3ccccc3)C[C@@H]1CC[C@@H]1[C@@H]2CC[C@]2(C)[C@@H](O)CC[C@@H]12 | 47 | 12 |  | ≥ 100 | 72 | >=100%
9 | COc1ccc(-n2ncc3c2C[C@@H]2CC[C@@H]4[C@H](CC[C@]5(C)[C@@H](O)CC[C@@H]45)[C@@]2(C)C3)cc1 | 75 | 97 |  | 0 | 43 | >=100%
10 | COc1ccc(-n2nc3c(c2C)C[C@@]2(C)[C@@H](CC[C@@H]4[C@@H]2CC[C@]2(C)[C@@H](O)CC[C@@H]42)C3)cc1 | 54 | 29 | Active | 7 | 82 | 
11 | COc1ccc(-n2nc3c(c2C)C[C@@]2(C)[C@@H](CC[C@@H]4[C@@H]2CC[C@]2(C)C(=O)CC[C@@H]42)C3)cc1 | 77 | ≥ 100 | Active | 20 | 57 | 
12 | C[C@]12Cc3cnn(-c4ccc(C#N)cc4)c3C[C@@H]1CC[C@@H]1[C@@H]2CC[C@]2(C)[C@@H](O)CC[C@@H]12 | 65 | 88 |  | 12 | 65 | >=100%
13 | CNC(=O)c1ccc(N2C(=S)N(c3ccc(C#N)c(C(F)(F)F)c3)C(=O)C2(C)C)cc1F [ENZALUTAMIDE] | ≥ 100 | 96 |  | 44 | 81 | 85%
14 | C[C@]12Cc3cnn(-c4ccc(F)cc4)c3C[C@@H]1CC[C@@H]1[C@@H]2CC[C@]2(C)[C@@H](O)CC[C@@H]12 | 57 | 55 |  | 1 | 44 | >=100%
15 | Cc1ccc(-n2nc3c(c2C)C[C@@]2(C)[C@@H](CC[C@@H]4[C@@H]2CC[C@]2(C)[C@@H](O)CC[C@@H]42)C3)cc1 | 37 | 93 | Active | 2 | 88 | 
16 | Cc1c2c(nn1-c1ccc([N+](=O)[O-])cc1)C[C@@H]1CC[C@@H]3[C@H](CC[C@]4(C)C(=O)CC[C@@H]34)[C@@]1(C)C2 | 57 | ≥ 100 | Active | 26 | 48 | 
17 | C[C@]12Cc3cnn(-c4ccc(Br)cc4)c3C[C@@H]1CC[C@@H]1[C@@H]2CC[C@]2(C)[C@@H](O)CC[C@@H]12 | 62 | 100 |  | 1 | 58 | >=100%
18 | C[C@]12Cc3cnn(-c4ccc([N+](=O)[O-])cc4)c3C[C@@H]1CC[C@@H]1[C@@H]2CC[C@]2(C)[C@@H](O)CC[C@@H]12 | 97 | 99 |  | 15 | 40 | >=100%
19 | Cc1c2c(nn1-c1ccc(Cl)cc1)C[C@@H]1CC[C@@H]3[C@H](CC[C@]4(C)[C@@H](O)CC[C@@H]34)[C@@]1(C)C2 | 52 | 107 | Active | 4 | 47 | 
20 | Cc1c2c(nn1-c1ccc(Br)cc1)C[C@@H]1CC[C@@H]3[C@H](CC[C@]4(C)[C@@H](O)CC[C@@H]34)[C@@]1(C)C2 | 50 | 89 | Active | 5 | 52 | 
21 | N#Cc1ccc(O[C@H]2CC[C@H](NC(=O)c3ccc(N4CCC(CN5CCN(c6cc7c(cc6F)C(=O)N(C6CCC(=O)NC6=O)C7=O)CC5)CC4)nn3)CC2)cc1Cl (some centres not stated) [BAVDEGALUTAMIDE] | 96 | 85 |  | 7 | 5 | 14%
22 | Cc1c2c(nn1-c1ccc(Cl)cc1)C[C@@H]1CC[C@@H]3[C@H](CC[C@]4(C)C(=O)CC[C@@H]34)[C@@]1(C)C2 | 75 | ≥ 100 | Active | 16 | 38 | 
23 | C[C@]12CC[C@H](O)CC1=CC[C@@H]1[C@@H]2CC[C@]2(C)C(n3cnc4ccccc43)=CC[C@@H]12 [GALETERONE] | 95 | ≥ 100 |  | 30 | ≥ 76 | 81%
24 | Cc1c2c(nn1-c1ccccc1)C[C@@H]1CC[C@@H]3[C@H](CC[C@]4(C)C(=O)CC[C@@H]34)[C@@]1(C)C2 | 90 | 100 | Active | 54 | 87 | 
